Key:
Hep3B xenograft = test: Cell‐derived xenograft (CDX) model; format: in vivo, nude mice; details: 100 mg/kg i.p., 18 days
Method: (§1) For CDX models, HCC cells (HepG2, Hep3B) were harvested, and cells suspension (5 × 10^6 − 1 × 10^7 cells per mouse) were subcutaneously injected into the hind flank region of nude mice. For PDX models, fresh HCC tissues obtained from West China Hospital were minced into 2–5 mm^3 sizes to build the PDX models. The HCC tissue fragments were transplanted into the hind flank region of NOD/SCID mice within 2 h. Once the tumor volume reached ∼2 cm^3, the PDX models were expanded.
(§2) When the tumor volume reached approximately 100 mm^3, CDX & PDX tumor‐bearing mice were randomly divided into groups: (1) blank solvent; (2) ZY0511 50 mg/kg per day, i.p.; (3) ZY0511 100 mg/kg per day, i.p.; and (4) combinatorial treatment of ZY0511 50 mg/kg with DTP3 30 mg/kg, per day, i.p. Tumor sizes and animal body weights were monitored every 3 days, and tumor volumes were calculated as 0.5 × length × width^2. TGI rate was calculated as (1 − tumor volume of treated group/tumor volume of control group) x 100%.

HepG2 xenograft = test: Cell‐derived xenograft (CDX) model; format: in vivo, nude mice; details: 100 mg/kg i.p., 18 days
Method: as §1, §2

PLC/PRF/5 = test: EdU incorporation assay; details: PLC/PRF/5, 96 h
Method: (§3) EdU assay was utilized to detect proliferating cells. […] EdU‐positive cells were detected by employing high‐throughput screening (HTS; Thermo Fisher), and the EdU incorporation rate was calculated.

Hep3B = test: EdU incorporation assay; details: 96 h
Method: as §3

[1] = system: 104 cancer‐related kinases; test: Kinase activity detection (Eurofins), whole panel; format: biochemical; details: ZY0511 1 μM
Method: The activity of ZY0511 against 104 cancer‐related kinases was carried out by Eurofins Pharma Discovery Services (Celle Lévescault, France).

PDX3 tumors = test: Third PDX model (PDX3), ZY0511 and DTP3; format: in vivo, NOD/SCID mice
Method: as §1, §2
Both procedures were carried out as previously described.[21] In brief, samples were fixated in 4% paraformaldehyde and consequently paraffin‐coated. Thin tissue segments (4 μm) were prepared, and H&E staining was performed. […]

[2] = Body weight of tumor‐bearing mice (HepG2, Hep3B, PDX1, PDX2); format: in vivo; details: CDX and PDX models, compared with control
Method: as §2

SMILES: O=C(N/N=C1\CCc2c(Cl)ccc(O)c21)c1cccc(S(=O)(=O)N2CCOCC2)c1 [ZY0511, (E)‐N'‐(2, 3‐dihydro‐1H‐inden‐1‐ylidene) benzohydrazides]
- tumor growth inhibition (TGI) (Hep3B xenograft): 52.70%
- tumor growth inhibition (TGI) (HepG2 xenograft): 58.29%
- inhibition rate of EdU‐positive cells (PLC/PRF/5): 9.2%
- inhibition rate of EdU‐positive cells (Hep3B): 99.9%
- effect against other kinases, including FGFR, VEGFR, and PDGFR [1]: no effect
- TGI (PDX3 tumors; PDX3, ZY0511 50 mg/kg i.p., 15 days): 32.79%
- mice body weight (PDX3 tumors; PDX3, ZY0511 and/or DTP3, 15 days): no change
- body weight of mice [2]: did not change

From paper PMC10209615, “Pharmacological inhibition of LSD1 suppresses growth of hepatocellular carcinoma by inducing GADD45B” (MedComm, 2023)
